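Briefly, cells in 96-well plates were exposed to five compound concentrations for 48 h, and endpoints were estimated by linear interpolation. Here, GI50 denotes the concentration required for 50% inhibition of growth.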 The source made the active and inactive calls. Rule as the data show it: active = GI50 up to about 1.1 µM and inactive = higher.
How the values were obtained:
Test in all cases: growth of human tumour cells (NCI), 48 h
SF-539 = test system: SF-539
HOP-92 = test system: HOP-92
RPMI-8226 = test system: RPMI-8226
SK-MEL-5 = test system: SK-MEL-5
TK-10 = test system: TK-10
UO-31 = test system: UO-31
Malme-3M = test system: Malme-3M
K562 = test system: K562
COLO 205 = test system: COLO 205
ACHN = test system: ACHN
A498 = test system: A498
786-0 = test system: 786-0
SK-MEL-28 = test system: SK-MEL-28
HCT-15 = test system: HCT-15
OVCAR-3 = test system: OVCAR-3

SMILES | GI50 (SF-539) | GI50 (HOP-92) | GI50 (RPMI-8226) | GI50 (SK-MEL-5) | GI50 (TK-10) | GI50 (UO-31) | GI50 (Malme-3M) | GI50 (K562) | GI50 (COLO 205) | GI50 (ACHN) | GI50 (A498) | GI50 (786-0) | GI50 (SK-MEL-28) | GI50 (HCT-15) | GI50 (OVCAR-3)
COc1ccc2oc(C(=O)O)c3c2c1CCC3CCC(=O)O (stereo unspecified) | > 100 µM (inactive) | > 100 µM (inactive) | > 100 µM (inactive) | > 100 µM (inactive) | > 100 µM (inactive) | > 100 µM (inactive) | > 100 µM (inactive) | > 100 µM (inactive) | > 100 µM (inactive) | > 100 µM (inactive) | > 100 µM (inactive) | > 100 µM (inactive) | > 100 µM (inactive) | – | –
CCCCNC(=O)C1C2CCC(O2)C1C(=O)O (stereo unspecified) | 21 µM (inactive) | 12 µM (inactive) | 20.9 µM (inactive) | 20.2 µM (inactive) | 18.1 µM (inactive) | 64.6 µM (inactive) | 21.5 µM (inactive) | – | 16.6 µM (inactive) | 22.6 µM (inactive) | 12.7 µM (inactive) | 16.1 µM (inactive) | 28 µM (inactive) | 23.7 µM | 16 µM (inactive)
COc1ccc(NC(=O)CC(=O)N/N=C/c2ccc(N(CCC#N)S(=O)(=O)c3ccccc3)cc2)cc1 | – | > 100 µM (inactive) | > 100 µM (inactive) | > 100 µM (inactive) | > 100 µM (inactive) | > 100 µM (inactive) | > 100 µM (inactive) | > 100 µM (inactive) | > 100 µM (inactive) | > 100 µM (inactive) | – | > 100 µM (inactive) | > 100 µM (inactive) | > 100 µM | > 100 µM (inactive)
CCCCCCCCCCC/C(=N/O)c1ccc(O)c2ncccc12 | 2.02 µM (inactive) | 0.275 µM (active) | – | 1.85 µM (inactive) | 7.35 µM (inactive) | 2.8 µM (inactive) | 2.47 µM (inactive) | – | 45.9 µM (inactive) | 2.21 µM (inactive) | – | 10.6 µM (inactive) | 9.25 µM (inactive) | – | –
OC1C2C=CCC1CCC2 (stereo unspecified) | > 100 µM (inactive) | > 100 µM (inactive) | > 100 µM (inactive) | > 100 µM (inactive) | > 100 µM (inactive) | > 100 µM (inactive) | > 100 µM (inactive) | > 100 µM (inactive) | > 100 µM (inactive) | > 100 µM (inactive) | > 100 µM (inactive) | > 100 µM (inactive) | > 100 µM (inactive) | – | > 100 µM (inactive)
Cc1cccc2c(=O)c([Se]c3coc4c(C)cccc4c3=O)coc12 | 16.3 µM (inactive) | 20.8 µM (inactive) | 29.2 µM (inactive) | 18.2 µM (inactive) | 29.9 µM (inactive) | 14.9 µM (inactive) | 19.1 µM (inactive) | 69.5 µM (inactive) | > 10 µM (inactive) | 18.4 µM (inactive) | 24.6 µM (inactive) | 17.3 µM (inactive) | 16.7 µM (inactive) | 19.4 µM | 25.2 µM (inactive)
O=C1c2ccccc2C2(O)Oc3cccc(O)c3C12O (stereo unspecified) | > 100 µM (inactive) | > 100 µM (inactive) | > 100 µM (inactive) | > 100 µM (inactive) | > 100 µM (inactive) | > 100 µM (inactive) | > 100 µM (inactive) | > 100 µM (inactive) | > 100 µM (inactive) | > 100 µM (inactive) | > 100 µM (inactive) | > 100 µM (inactive) | > 100 µM (inactive) | > 100 µM | > 100 µM (inactive)
CSc1nc2c(nc(N)n2C2OCC(O)C(O)C2O)c(=O)n1C (stereo unspecified) | > 100 µM (inactive) | > 100 µM (inactive) | – | > 100 µM (inactive) | > 100 µM (inactive) | > 100 µM (inactive) | > 100 µM (inactive) | > 100 µM (inactive) | > 100 µM (inactive) | > 100 µM (inactive) | > 100 µM (inactive) | > 100 µM (inactive) | > 100 µM (inactive) | – | > 100 µM (inactive)
O=C(Cc1ccccc1)Oc1ccc2c(-c3ccccc3)c(C(=O)Nc3ccc(Cl)cc3)c(=O)oc2c1 | > 100 µM (inactive) | > 100 µM (inactive) | > 100 µM (inactive) | > 100 µM (inactive) | > 100 µM (inactive) | > 100 µM (inactive) | > 100 µM (inactive) | > 100 µM (inactive) | > 100 µM (inactive) | > 100 µM (inactive) | > 100 µM (inactive) | > 100 µM (inactive) | > 100 µM (inactive) | > 100 µM | > 100 µM (inactive)
COc1ccccc1NC(=O)c1nc2ccc([N+](=O)[O-])cc2nc1C | > 100 µM (inactive) | 51.8 µM (inactive) | > 100 µM (inactive) | > 100 µM (inactive) | > 100 µM (inactive) | > 100 µM (inactive) | > 100 µM (inactive) | > 100 µM (inactive) | > 100 µM (inactive) | > 100 µM (inactive) | > 100 µM (inactive) | > 100 µM (inactive) | > 100 µM (inactive) | > 100 µM | > 100 µM (inactive)
Fc1cccc(C2SCc3nc4ccccc4n32)c1F (stereo unspecified) | > 100 µM (inactive) | 23 µM (inactive) | 31.1 µM (inactive) | 21.6 µM (inactive) | 42 µM (inactive) | 41.9 µM (inactive) | 38 µM (inactive) | 33 µM (inactive) | 80.5 µM (inactive) | 48.5 µM (inactive) | 42.2 µM (inactive) | 92.9 µM (inactive) | – | 59.3 µM | 29.1 µM (inactive)
O=C(Nc1cc(Cl)c(Cl)cc1Cl)C(=O)C(C(=O)c1ccc2ccccc2c1)C1OC(=O)c2ccccc21 (stereo unspecified) | 3.39 µM (inactive) | 1.96 µM (inactive) | 11.9 µM (inactive) | 11.8 µM (inactive) | – | 18 µM (inactive) | 13.2 µM (inactive) | – | 17 µM (inactive) | 16.7 µM (inactive) | 12 µM (inactive) | 8.11 µM (inactive) | 10.3 µM (inactive) | 17.3 µM | 16.3 µM (inactive)
Cc1cccc(C(C)C)c1NC(=O)CC1C(=O)Nc2ccccc2S1(=O)=O (stereo unspecified) | 5.77 µM (inactive) | 11.8 µM (inactive) | 3.14 µM (inactive) | 12.3 µM (inactive) | 29 µM (inactive) | 13.5 µM (inactive) | 16.3 µM (inactive) | 2.22 µM (inactive) | 25.2 µM (inactive) | 22.9 µM (inactive) | 11.7 µM (inactive) | 13.9 µM (inactive) | 17.7 µM (inactive) | 5.11 µM | 12.2 µM (inactive)
COc1ccccc1NC(=O)C(=O)C(c1cnc2ccc([N+](=O)[O-])cc2n1)[N+](=O)[O-] (stereo unspecified) | > 100 µM (inactive) | > 100 µM (inactive) | 25.2 µM (inactive) | > 100 µM (inactive) | > 100 µM (inactive) | 78 µM (inactive) | > 100 µM (inactive) | 31.5 µM (inactive) | 38.3 µM (inactive) | 87.3 µM (inactive) | > 100 µM (inactive) | > 100 µM (inactive) | > 100 µM (inactive) | > 100 µM | –
Cc1ccc(S(=O)(=O)c2c(N)c3nccn3c3nc4ccccc4nc23)cc1 | > 100 µM (inactive) | > 100 µM (inactive) | > 100 µM (inactive) | > 100 µM (inactive) | 69.8 µM (inactive) | > 100 µM (inactive) | > 100 µM (inactive) | > 100 µM (inactive) | > 100 µM (inactive) | 79.8 µM (inactive) | – | 49 µM (inactive) | > 100 µM (inactive) | > 100 µM | > 100 µM (inactive)
O=C(Cc1ccccc1)C(c1ccccc1)S(=O)(=O)c1ccccc1 (stereo unspecified) | > 100 µM (inactive) | 81.5 µM (inactive) | > 100 µM (inactive) | > 100 µM (inactive) | > 100 µM (inactive) | 41.2 µM (inactive) | > 100 µM (inactive) | 93.3 µM (inactive) | > 100 µM (inactive) | > 100 µM (inactive) | > 100 µM (inactive) | > 100 µM (inactive) | > 100 µM (inactive) | 83.6 µM | > 100 µM (inactive)
COC(=O)CC(=O)C[P+](c1ccccc1)(c1ccccc1)c1ccccc1 | 197 µM (inactive) | 102 µM (inactive) | 63.5 µM (inactive) | 158 µM (inactive) | > 218 µM (inactive) | – | 192 µM (inactive) | 68.5 µM (inactive) | 168 µM (inactive) | > 218 µM (inactive) | – | > 218 µM (inactive) | 196 µM (inactive) | 56.5 µM | 69.7 µM (inactive)
CCOC(=O)NN1C(=O)C(=P(c2ccccc2)(c2ccccc2)c2ccccc2)C(C(=O)OCC)=C1C | > 100 µM (inactive) | > 100 µM (inactive) | > 100 µM (inactive) | > 100 µM (inactive) | > 100 µM (inactive) | > 100 µM (inactive) | > 100 µM (inactive) | > 100 µM (inactive) | > 100 µM (inactive) | > 100 µM (inactive) | > 100 µM (inactive) | > 100 µM (inactive) | – | > 100 µM | > 100 µM (inactive)
COC(=O)C1=C(O)C(O)=C(C(=O)OC)C1 | > 100 µM (inactive) | > 100 µM (inactive) | > 100 µM (inactive) | > 100 µM (inactive) | > 100 µM (inactive) | > 100 µM (inactive) | > 100 µM (inactive) | > 100 µM (inactive) | > 100 µM (inactive) | > 100 µM (inactive) | > 100 µM (inactive) | > 100 µM (inactive) | > 100 µM (inactive) | > 100 µM | > 100 µM (inactive)
CCOC(=O)C1Nc2ccccc2[C@H]2OCC[C@@H]12 (stereo partly specified) | > 100 µM (inactive) | – | – | > 100 µM (inactive) | > 100 µM (inactive) | – | > 100 µM (inactive) | > 100 µM (inactive) | > 100 µM (inactive) | > 100 µM (inactive) | > 100 µM (inactive) | > 100 µM (inactive) | > 100 µM (inactive) | > 100 µM | > 100 µM (inactive)

Source: ChEMBL document CHEMBL1201862, “PubChem BioAssay data set” (2004)
